Like-named read-outs stand apart in the source and are kept apart here.
How the values were obtained:
[1] = system: mu opiate receptor (MOR); experiment: MOR agonist activity using [35S]GTPγS binding assay in striatal membranes; format: biochemical; details: for MOR agonist activity ([35S]GTPγS binding), FLNA-Binding Compound as Agonist 1 μM + BFNA: 1 μM compound + 1 μM β-funaltrexamine
Procedure, shortened: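 Striatal membranes (200 μg) were preincubated 5 min at 30 °C in HEPES pH 7.5 with 100 mM NaCl, 1 mM MgCl2 and 0.5 nM [35S]GTPγS, then 5 min more with 0.1–10 μM compound. Gαo was immunoprecipitated and bound radioactivity counted by scintillation.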

[2] = molecular target: FLNA pentapeptide of SEQ ID NO: 1 (Bn-VAKGL) (Homo sapiens, UniProt P21333); experiment: FITC-NLX-based FLNA screening assay (inhibition of FITC-naloxone binding to Bn-VAKGL on streptavidin plates); details: 10 nM FITC-NLX
[3] = Series B, 0.1 μM compound, relative to DAMGO
[4] = Series B, 0.1 μM compound, [35S]GTPγS binding to Gαo, striatal membranes
[5] = Series B, 1 μM compound + 1 μM β-FNA
[6] = Series B, 1 μM compound + β-FNA, relative to DAMGO + BFNA
[7] = Series B, 1 μM compound, relative to DAMGO
[8] = Series B, 1 μM compound, [35S]GTPγS binding to Gαo, striatal membranes
[9] = read-out: Percent Binding Inhibition, FLNA-binding compound 0.01 μM
[10] = read-out: Percent Binding Inhibition, FLNA-binding compound 0.1 μM
[11] = read-out: Percent Binding Inhibition, FLNA-binding compound 1 μM
[12] = 0.1 μM compound relative to DAMGO
[13] = 1 μM compound + BFNA relative to DAMGO + BFNA
[14] = 1 μM compound relative to DAMGO
[15] = FLNA-binding compound 0.01 μM, read-out: Percent Binding Inhibition
[16] = FLNA-binding compound 0.1 μM, read-out: Percent Binding Inhibition
[17] = FLNA-binding compound 1 μM, read-out: Percent Binding Inhibition
[18] = Series C-1, 0.1 μM compound, relative to DAMGO
[19] = Series C-1, 0.1 μM compound, [35S]GTPγS binding to Gαo, striatal membranes
[20] = Series C-1, 1 μM compound + 1 μM β-FNA
[21] = Series C-1, 1 μM compound + β-FNA, relative to DAMGO + BFNA
[22] = Series C-1, 1 μM compound, relative to DAMGO
[23] = Series C-1, 1 μM compound, [35S]GTPγS binding to Gαo, striatal membranes
[24] = Series C-2, 0.1 μM compound, relative to DAMGO
[25] = Series C-2, 0.1 μM compound, [35S]GTPγS binding to Gαo, striatal membranes
[26] = Series C-2, 1 μM compound + 1 μM β-FNA
[27] = Series C-2, 1 μM compound + β-FNA, relative to DAMGO + BFNA
[28] = Series C-2, 1 μM compound, relative to DAMGO
[29] = Series C-2, 1 μM compound, [35S]GTPγS binding to Gαo, striatal membranes

Structure (SMILES): COc1ccccc1CC(O)CC1c2c(cc3c(c2OC)OCO3)CC[N+]1(C)C (stereo not drawn) [Compound B0032]
- % DAMGO (0.1 μM) [1, 3]: 115.0%
- MOR agonist activity, percent [35S]GTPγS binding at the stated compound concentration [1, 4]: 221.1%
- MOR agonist activity, percent [35S]GTPγS binding at the stated compound concentration [1, 5]: 15.6%
- % DAMGO + BFNA [1, 6]: 35.5%
- % DAMGO (1 μM) [1, 7]: 109.0%
- MOR agonist activity, percent [35S]GTPγS binding at the stated compound concentration [1, 8]: 297.7%
- inhibition at 0.01 µM [2, 9]: 45.1%
- inhibition at 0.1 µM [2, 10]: 51.3%
- inhibition at 1 µM [2, 11]: 48.9%

Structure (SMILES): CN(C)c1cccc(OCC(O)CN2CCc3ccccc3C2)c1 (stereo not drawn) [Compound A0050]
- MOR agonist activity ([35S]GTPγS binding), FLNA-Binding Compound as Agonist 0.1 μM ([1]; 0.1 μM compound): 151.0%
- % DAMGO (0.1 μM) [1, 12]: 77.0%
- MOR agonist activity ([35S]GTPγS binding), FLNA-Binding Compound as Agonist 1 μM ([1]; 1 μM compound): 189.3%
- MOR agonist activity ([35S]GTPγS binding), FLNA-Binding Compound as Agonist 1 μM + BFNA [1]: 81.0%
- % DAMGO + BFNA [1, 13]: 109.6%
- % DAMGO (1 μM) [1, 14]: 68.6%
- inhibition at 0.01 µM [2, 15]: 42.9%
- inhibition at 0.1 µM [2, 16]: 49.8%
- inhibition at 1 µM [2, 17]: 52.1%

Structure (SMILES): COc1c2c(cc3c1C(CC(=O)Cc1ccc(C#N)cc1)[N+](C)(C)CC3)OCO2 (stereo not drawn) [Compound B0012]
- % DAMGO (0.1 μM) [1, 3]: 97.8%
- MOR agonist activity, percent [35S]GTPγS binding at the stated compound concentration [1, 4]: 167.4%
- MOR agonist activity, percent [35S]GTPγS binding at the stated compound concentration [1, 5]: 145.1%
- % DAMGO + BFNA [1, 6]: 278.5%
- % DAMGO (1 μM) [1, 7]: 79.4%
- MOR agonist activity, percent [35S]GTPγS binding at the stated compound concentration [1, 8]: 212.0%
- inhibition at 0.01 µM [2, 9]: 39.4%
- inhibition at 0.1 µM [2, 10]: 46.9%
- inhibition at 1 µM [2, 11]: 51.7%

Structure (SMILES): O=S(=O)(c1cccc2cccnc12)N1CCC2(CC1)OCCN2S(=O)(=O)c1cccc2cccnc12 [Compound C0143M]
- % DAMGO (0.1 μM) [1, 18]: 47.1%
- Concentration of FLNA-Binding Compound as Agonist 0.1 μM [1, 19]: 81.0%
- Concentration of FLNA-Binding Compound as Agonist 1 μM + BFNA [1, 20]: 86.5%
- % DAMGO + BFNA [1, 21]: 94.7%
- % DAMGO (1 μM) [1, 22]: 59.3%
- Concentration of FLNA-Binding Compound as Agonist 1 μM [1, 23]: 193.3%
- % DAMGO (0.1 μM) [1, 24]: 47.1%
- Concentration of FLNA-Binding Compound as Agonist 0.1 μM [1, 25]: 81.0%
- Concentration of FLNA-Binding Compound as Agonist 1 μM + BFNA [1, 26]: 86.5%
- % DAMGO + BFNA [1, 27]: 94.7%
- % DAMGO (1 μM) [1, 28]: 59.3%
- Concentration of FLNA-Binding Compound as Agonist 1 μM [1, 29]: 193.3%
- inhibition at 0.01 µM [2, 9]: 45.3%
- inhibition at 0.1 µM [2, 10]: 48.4%
- inhibition at 1 µM [2, 11]: 57.8%

Structure (SMILES): COc1c2c(cc3c1C(CC(=O)CCc1ccc(O)cc1)[N+](C)(C)CC3)OCO2 (stereo not drawn) [Compound B0028]
- % DAMGO (0.1 μM) [1, 3]: 103.5%
- MOR agonist activity, percent [35S]GTPγS binding at the stated compound concentration [1, 4]: 199.1%
- MOR agonist activity, percent [35S]GTPγS binding at the stated compound concentration [1, 5]: 55.0%
- % DAMGO + BFNA [1, 6]: 125.3%
- % DAMGO (1 μM) [1, 7]: 131.0%
- MOR agonist activity, percent [35S]GTPγS binding at the stated compound concentration [1, 8]: 357.7%
- inhibition at 0.01 µM [2, 9]: 38.2%
- inhibition at 0.1 µM [2, 10]: 42.8%
- inhibition at 1 µM [2, 11]: 49.1%

Structure (SMILES): O=[N+]([O-])c1ccc(S(=O)(=O)N2CCC3(CC2)NCCCO3)cc1 [Compound C0045]
- % DAMGO (0.1 μM) [1, 24]: 88.3%
- MOR agonist activity, percent [35S]GTPγS binding at the stated compound concentration [1, 25]: 149.2%
- MOR agonist activity, percent [35S]GTPγS binding at the stated compound concentration [1, 26]: 105.3%
- % DAMGO + BFNA [1, 27]: 634.3%
- % DAMGO (1 μM) [1, 28]: 109.1%
- MOR agonist activity, percent [35S]GTPγS binding at the stated compound concentration [1, 29]: 238.8%
- inhibition at 0.01 µM [2, 15]: 39.1%
- inhibition at 0.1 µM [2, 16]: 48.9%
- inhibition at 1 µM [2, 17]: 53.7%

Structure (SMILES): COc1cc(S(=O)(=O)N2CCC3(CC2)OCCN3S(=O)(=O)c2cc(OC)c(OC)c(OC)c2)cc(OC)c1OC [Compound C0062]
- % DAMGO (0.1 μM) [1, 18]: 81.9%
- Concentration of FLNA-Binding Compound as Agonist 0.1 μM [1, 19]: 127.8%
- Concentration of FLNA-Binding Compound as Agonist 1 μM + BFNA [1, 20]: 59.8%
- % DAMGO + BFNA [1, 21]: 149.9%
- % DAMGO (1 μM) [1, 22]: 134.7%
- Concentration of FLNA-Binding Compound as Agonist 1 μM [1, 23]: 310.5%
- inhibition at 0.01 µM [2, 15]: 39.5%
- inhibition at 0.1 µM [2, 16]: 49.5%
- inhibition at 1 µM [2, 17]: 48%

Structure (SMILES): CC1CCC(C(C)C)C(OCC(O)CN2CCN(CCN3CCOCC3)CC2)C1 (stereo not drawn) [Compound A0011]
- MOR agonist activity ([35S]GTPγS binding), FLNA-Binding Compound as Agonist 0.1 μM ([1]; 0.1 μM compound): 236.3%
- % DAMGO (0.1 μM) [1, 12]: 158.2%
- MOR agonist activity ([35S]GTPγS binding), FLNA-Binding Compound as Agonist 1 μM ([1]; 1 μM compound): 287.5%
- MOR agonist activity ([35S]GTPγS binding), FLNA-Binding Compound as Agonist 1 μM + BFNA [1]: 47.0%
- % DAMGO + BFNA [1, 13]: 177.4%
- % DAMGO (1 μM) [1, 14]: 124.9%
- inhibition at 0.01 µM [2, 15]: 45.7%
- inhibition at 0.1 µM [2, 16]: 51.1%
- inhibition at 1 µM [2, 17]: 52.8%

Structure (SMILES): CC(=O)c1ccc(S(=O)(=O)N2CC(CN(C)C)OC23CCN(CC2CC2)CC3)cc1 (stereo not drawn) [Compound C0128M]
- % DAMGO (0.1 μM) [1, 24]: 104.5%
- MOR agonist activity, percent [35S]GTPγS binding at the stated compound concentration [1, 25]: 197.8%
- MOR agonist activity, percent [35S]GTPγS binding at the stated compound concentration [1, 26]: 63.9%
- % DAMGO + BFNA [1, 27]: 131.8%
- % DAMGO (1 μM) [1, 28]: 115.2%
- MOR agonist activity, percent [35S]GTPγS binding at the stated compound concentration [1, 29]: 286.0%
- inhibition at 0.01 µM [2, 15]: 46.5%
- inhibition at 0.1 µM [2, 16]: 54.4%
- inhibition at 1 µM [2, 17]: 58.2%

Structure (SMILES): COc1ccc(S(=O)(=O)N2CCOC23CCN(C(=O)OC(C)(C)C)CC3)cc1 [Compound C0043]
- % DAMGO (0.1 μM) [1, 24]: 103.8%
- MOR agonist activity, percent [35S]GTPγS binding at the stated compound concentration [1, 25]: 175.4%
- MOR agonist activity, percent [35S]GTPγS binding at the stated compound concentration [1, 26]: 83.3%
- % DAMGO + BFNA [1, 27]: 501.8%
- % DAMGO (1 μM) [1, 28]: 110.9%
- MOR agonist activity, percent [35S]GTPγS binding at the stated compound concentration [1, 29]: 242.6%
- inhibition at 0.01 µM [2, 15]: 43.9%
- inhibition at 0.1 µM [2, 16]: 51.3%
- inhibition at 1 µM [2, 17]: 58%

Structure (SMILES): COc1ccc(C(=O)CC2c3c(cc4c(c3OC)OCO4)CC[N+]2(C)C)cc1 (stereo not drawn) [Compound B0024]
- % DAMGO (0.1 μM) [1, 3]: 93.2%
- MOR agonist activity, percent [35S]GTPγS binding at the stated compound concentration [1, 4]: 155.8%
- MOR agonist activity, percent [35S]GTPγS binding at the stated compound concentration [1, 5]: 20.2%
- % DAMGO + BFNA [1, 6]: 58.2%
- % DAMGO (1 μM) [1, 7]: 116.7%
- MOR agonist activity, percent [35S]GTPγS binding at the stated compound concentration [1, 8]: 285.9%
- inhibition at 0.01 µM [2, 9]: 34.8%
- inhibition at 0.1 µM [2, 10]: 43.4%
- inhibition at 1 µM [2, 11]: 47.7%

Structure (SMILES): COc1ccc(S(=O)(=O)N2CCOC23CCN(C(C)C)CC3)cc1 [Compound C0133M]
- % DAMGO (0.1 μM) [1, 24]: 83.2%
- MOR agonist activity, percent [35S]GTPγS binding at the stated compound concentration [1, 25]: 139.4%
- MOR agonist activity, percent [35S]GTPγS binding at the stated compound concentration [1, 26]: 72.4%
- % DAMGO + BFNA [1, 27]: 152.4%
- % DAMGO (1 μM) [1, 28]: 96.6%
- MOR agonist activity, percent [35S]GTPγS binding at the stated compound concentration [1, 29]: 214.8%
- inhibition at 0.01 µM [2, 15]: 47.8%
- inhibition at 0.1 µM [2, 16]: 54.9%
- inhibition at 1 µM [2, 17]: 58.5%

Structure (SMILES): O=S(=O)(c1ccc(Br)cc1F)N1CCC2(CC1)OCCN2S(=O)(=O)c1ccc(Br)cc1F [Compound C0078]
- % DAMGO (0.1 μM) [1, 18]: 82.4%
- Concentration of FLNA-Binding Compound as Agonist 0.1 μM [1, 19]: 138.1%
- Concentration of FLNA-Binding Compound as Agonist 1 μM + BFNA [1, 20]: 170.7%
- % DAMGO + BFNA [1, 21]: 359.4%
- % DAMGO (1 μM) [1, 22]: 106.4%
- Concentration of FLNA-Binding Compound as Agonist 1 μM [1, 23]: 236.6%
- inhibition at 0.01 µM [2, 9]: 46.6%
- inhibition at 0.1 µM [2, 10]: 48%
- inhibition at 1 µM [2, 11]: 50.5%
